“And” between values parts separate entries of the source, which are not always exact repeats. Equal values may be shown once.
Test: xn = mol fraction of the nth substance listed

OCCOCCO + O
Conditions | viscosity
293.15 K, 100 kPa, x2 = 0.013 | 37.31 mPa·s
293.15 K, 100 kPa, x2 = 0.037 | 35.38 mPa·s and 33.15 mPa·s
293.15 K, 100 kPa, x2 = 0.038 | 34.7 mPa·s
293.15 K, 100 kPa, x2 = 0.075 | 34.97 mPa·s
293.15 K, 100 kPa, x2 = 0.082 | 34.55 mPa·s
298.15 K, 100 kPa, x2 = 0.013 | 29.02 mPa·s
298.15 K, 100 kPa, x2 = 0.037 | 27.76 mPa·s
298.15 K, 100 kPa, x2 = 0.075 | 27.47 mPa·s
298.15 K, 100 kPa, x2 = 0.082 | 27.12 mPa·s
298.15 K, 101.33 kPa, x2 = 0.1041 | 25.71 mPa·s
298.15 K, 101.33 kPa, x2 = 0.2105 | 24.14 mPa·s
298.15 K, 101.33 kPa, x2 = 0.2697 | 22.9 mPa·s
298.15 K, 101.33 kPa, x2 = 0.4009 | 19.9 mPa·s
298.15 K, 101.33 kPa, x2 = 0.5145 | 16.51 mPa·s
298.15 K, 101.33 kPa, x2 = 0.6157 | 12.99 mPa·s
298.15 K, 101.33 kPa, x2 = 0.7095 | 9.442 mPa·s
298.15 K, 101.33 kPa, x2 = 0.825 | 5.193 mPa·s
298.15 K, 101.33 kPa, x2 = 0.9059 | 2.772 mPa·s
303.15 K, 100 kPa, x2 = 0.013 | 23.06 mPa·s
303.15 K, 100 kPa, x2 = 0.038 | 21.92 mPa·s
303.15 K, 100 kPa, x2 = 0.075 | 21.95 mPa·s
303.15 K, 101 kPa, x1 = 0.002 | 0.836 mPa·s
303.15 K, 101 kPa, x1 = 0.004 | 0.863 mPa·s
303.15 K, 101 kPa, x1 = 0.005 | 0.883 mPa·s
303.15 K, 101 kPa, x1 = 0.007 | 0.91 mPa·s
303.15 K, 101 kPa, x1 = 0.009 | 0.938 mPa·s
303.15 K, 101 kPa, x1 = 0.01 | 0.975 mPa·s and 1.02 mPa·s and 1.076 mPa·s
303.15 K, 101 kPa, x1 = 0.018 | 1.171 mPa·s
303.15 K, 101.33 kPa, x1 = 0.0004 | 0.778 mPa·s
303.15 K, 101.33 kPa, x1 = 0.0007 | 0.785 mPa·s
303.15 K, 101.33 kPa, x1 = 0.0015 | 0.788 mPa·s
303.15 K, 101.33 kPa, x1 = 0.0027 | 0.804 mPa·s
303.15 K, 101.33 kPa, x1 = 0.0047 | 0.836 mPa·s
303.15 K, 101.33 kPa, x1 = 0.0193 | 1.02 mPa·s
303.15 K, 101.33 kPa, x1 = 0.0548 | 1.579 mPa·s
303.15 K, 101.33 kPa, x1 = 0.0991 | 2.467 mPa·s
303.15 K, 101.33 kPa, x1 = 0.1966 | 4.98 mPa·s
303.15 K, 101.33 kPa, x1 = 0.2956 | 7.943 mPa·s
303.15 K, 101.33 kPa, x1 = 0.3956 | 10.97 mPa·s
303.15 K, 101.33 kPa, x1 = 0.4905 | 13.62 mPa·s
303.15 K, 101.33 kPa, x1 = 0.6406 | 17.06 mPa·s
303.15 K, 101.33 kPa, x1 = 0.8543 | 20.37 mPa·s
308.15 K, 100 kPa, x2 = 0.013 | 18.69 mPa·s
308.15 K, 100 kPa, x2 = 0.037 | 18.11 mPa·s and 16.84 mPa·s
308.15 K, 100 kPa, x2 = 0.082 | 17.7 mPa·s
308.15 K, 101 kPa, x1 = 0.002 | 0.736 mPa·s
308.15 K, 101 kPa, x1 = 0.004 | 0.753 mPa·s
308.15 K, 101 kPa, x1 = 0.005 | 0.805 mPa·s
308.15 K, 101 kPa, x1 = 0.007 | 0.832 mPa·s
308.15 K, 101 kPa, x1 = 0.009 | 0.867 mPa·s
308.15 K, 101 kPa, x1 = 0.01 | 0.902 mPa·s and 0.938 mPa·s and 0.991 mPa·s
308.15 K, 101 kPa, x1 = 0.018 | 1.082 mPa·s
308.15 K, 101 kPa, x1 = 0.02 | 1.028 mPa·s
308.15 K, 101 kPa, x1 = 0.7525 | 15.65 mPa·s
308.15 K, 101.33 kPa, x1 = 0.0004 | 0.704 mPa·s
308.15 K, 101.33 kPa, x1 = 0.0007 | 0.71 mPa·s
308.15 K, 101.33 kPa, x1 = 0.0015 | 0.717 mPa·s
308.15 K, 101.33 kPa, x1 = 0.0027 | 0.73 mPa·s
308.15 K, 101.33 kPa, x1 = 0.0047 | 0.749 mPa·s
308.15 K, 101.33 kPa, x1 = 0.0193 | 0.905 mPa·s
308.15 K, 101.33 kPa, x1 = 0.0991 | 2.107 mPa·s
308.15 K, 101.33 kPa, x1 = 0.1966 | 4.169 mPa·s
308.15 K, 101.33 kPa, x1 = 0.2956 | 6.484 mPa·s
308.15 K, 101.33 kPa, x1 = 0.3956 | 8.911 mPa·s
308.15 K, 101.33 kPa, x1 = 0.4905 | 10.95 mPa·s
308.15 K, 101.33 kPa, x1 = 0.5794 | 12.64 mPa·s
308.15 K, 101.33 kPa, x1 = 0.775 | 15.47 mPa·s
308.15 K, 101.33 kPa, x1 = 0.8543 | 16.25 mPa·s
308.15 K, 101.33 kPa, x1 = 0.917 | 16.82 mPa·s
313.15 K, 100 kPa, x2 = 0.013 | 15.39 mPa·s
313.15 K, 100 kPa, x2 = 0.037 | 14.96 mPa·s
313.15 K, 100 kPa, x2 = 0.038 | 15.25 mPa·s
313.15 K, 100 kPa, x2 = 0.075 | 14.8 mPa·s
313.15 K, 101 kPa, x1 = 0.002 | 0.67 mPa·s
313.15 K, 101 kPa, x1 = 0.004 | 0.685 mPa·s
313.15 K, 101 kPa, x1 = 0.005 | 0.703 mPa·s
313.15 K, 101 kPa, x1 = 0.007 | 0.738 mPa·s
313.15 K, 101 kPa, x1 = 0.009 | 0.78 mPa·s
313.15 K, 101 kPa, x1 = 0.01 | 0.83 mPa·s and 0.872 mPa·s and 0.907 mPa·s
313.15 K, 101 kPa, x1 = 0.018 | 0.994 mPa·s
313.15 K, 101 kPa, x1 = 0.02 | 0.958 mPa·s
318.15 K, 100 kPa, x2 = 0.013 | 12.84 mPa·s
318.15 K, 100 kPa, x2 = 0.037 | 12.51 mPa·s
318.15 K, 100 kPa, x2 = 0.038 | 12.4 mPa·s
318.15 K, 100 kPa, x2 = 0.075 | 12.37 mPa·s
318.15 K, 101 kPa, x1 = 0.002 | 0.612 mPa·s
318.15 K, 101 kPa, x1 = 0.004 | 0.621 mPa·s
318.15 K, 101 kPa, x1 = 0.005 | 0.654 mPa·s
318.15 K, 101 kPa, x1 = 0.007 | 0.688 mPa·s
318.15 K, 101 kPa, x1 = 0.009 | 0.729 mPa·s
318.15 K, 101 kPa, x1 = 0.01 | 0.779 mPa·s and 0.821 mPa·s and 0.864 mPa·s
318.15 K, 101 kPa, x1 = 0.018 | 0.949 mPa·s
318.15 K, 101 kPa, x1 = 0.02 | 0.906 mPa·s
323.15 K, 100 kPa, x2 = 0.013 | 10.85 mPa·s
323.15 K, 100 kPa, x2 = 0.037 | 10.58 mPa·s and 9.873 mPa·s
323.15 K, 100 kPa, x2 = 0.038 | 10.49 mPa·s
323.15 K, 100 kPa, x2 = 0.075 | 10.44 mPa·s
323.15 K, 100 kPa, x2 = 0.082 | 10.35 mPa·s
323.15 K, 101 kPa, x1 = 0.002 | 0.555 mPa·s
323.15 K, 101 kPa, x1 = 0.004 | 0.571 mPa·s
323.15 K, 101 kPa, x1 = 0.005 | 0.587 mPa·s
323.15 K, 101 kPa, x1 = 0.007 | 0.619 mPa·s
323.15 K, 101 kPa, x1 = 0.009 | 0.667 mPa·s
323.15 K, 101 kPa, x1 = 0.01 | 0.707 mPa·s and 0.747 mPa·s and 0.78 mPa·s
323.15 K, 101 kPa, x1 = 0.018 | 0.869 mPa·s
323.15 K, 101 kPa, x1 = 0.02 | 0.828 mPa·s

— the CheMixHub viscosity set
